Measurements as given in patent US10538554B2, “Peptides and uses therefor as antiviral agents” (priority 2015, dated 2020).
Where two headings read alike, the source gives them in different places. Bridge positions count the residues as written; N and C are the ends. Square brackets hold non-standard residues; d marks the D form. Peptide text beside a SMILES is read from it.

Legend:
H9N2 A/Iran/16/2000 = settings: 48 h
H1N1 A/NY/18/2009 = settings: A/NY/18/2009, 48 h, 10 μM
H3N8 A/Miami/2/63 = settings: A/Miami/2/63, 48 h
[1] = tested on: H1N1 A1/Malaysia/302/1954; settings: A1/Malaysia/302/1954, 48 h
H3N2 A/HK/8/1968 = settings: A/HK/8/1968, 48 h

CC[C@@H](C)[C@H]1NC(=O)[C@@H](Cc2ccccc2)NC(=O)[C@@H](CCC(=O)O)NC(=O)[C@@H](Cc2ccccc2)NC(=O)[C@@H](Cc2c[nH]c3ccccc23)NC(=O)[C@@H]([C@H](C)O)NC(=O)[C@H](NC(=O)[C@H](CCCCN)NC(=O)[C@H](CCCCN)NC(=O)[C@H](CCCNC(=N)N)NC(=O)[C@@H](N)CCCNC(=N)N)CSSC[C@H](C(=O)O)NC(=O)[C@@H](CC(N)=O)NC1=O [PSP IV A4, H-RRKKctwfefinc-OH] (H-RRKK[dC][dT][dW][dF][dE][dF][dI][dN][dC]-OH; disulfide 5-13)
% inhibition H9N2 (H9N2 A/Iran/16/2000; 10 μM): 53% | % Inhibition Pdm 2009 (H1N1 A/NY/18/2009): 45% | % inhibition H3N8 (H3N8 A/Miami/2/63; 10 μM): 72% | % inhibition H1N1 ([1]; 10 μM): 62%

CC[C@@H](C)[C@H]1NC(=O)[C@@H](Cc2ccccc2)NC(=O)[C@@H](CC(N)=O)NC(=O)[C@@H](Cc2ccccc2)NC(=O)[C@@H](Cc2c[nH]c3ccccc23)NC(=O)[C@@H]([C@H](C)O)NC(=O)[C@H](NC(=O)[C@H](CCCCN)NC(=O)[C@H](CCCCN)NC(=O)[C@H](CCCNC(=N)N)NC(=O)[C@@H](N)CCCNC(=N)N)CSSC[C@H](C(=O)O)NC(=O)[C@@H](CC(N)=O)NC1=O [PSP IV A12, H-RRKKctwfnfinc-OH] (H-RRKK[dC][dT][dW][dF][dN][dF][dI][dN][dC]-OH; disulfide 5-13)
% inhibition H9N2 (H9N2 A/Iran/16/2000; 10 μM): 48% | % Inhibition Pdm 2009 (H1N1 A/NY/18/2009): 60% | % inhibition H3N8 (H3N8 A/Miami/2/63; 10 μM): 56% | % inhibition H1N1 ([1]; 10 μM): 67%

CC[C@@H](C)[C@H]1NC(=O)[C@@H](Cc2ccccc2)NC(=O)[C@@H](CCCNC(=N)N)NC(=O)[C@@H](CC(=O)O)NC(=O)[C@@H](Cc2c[nH]c3ccccc23)NC(=O)[C@@H]([C@H](C)O)NC(=O)[C@H](NC(=O)[C@H](CCCCN)NC(=O)[C@H](CCCCN)NC(=O)[C@H](CCCNC(=N)N)NC(=O)[C@@H](N)CCCNC(=N)N)CSSC[C@H](C(=O)O)NC(=O)[C@@H](CC(N)=O)NC1=O [PSP III B3, H-RRKKctwdrfinc-OH] (H-RRKK[dC][dT][dW][dD][dR][dF][dI][dN][dC]-OH; disulfide 5-13)
% inhibition H9N2 (H9N2 A/Iran/16/2000; 50 μM): 20% | % inhibition H3N8 (H3N8 A/Miami/2/63; 50 μM): 43% | % inhibition H3N2 (H3N2 A/HK/8/1968; 50 μM): 83% | % inhibition H1N1 ([1]; 50 μM): 12%

CC(C)C[C@H]1NC(=O)[C@@H](Cc2ccccc2)NC(=O)[C@@H](CCCNC(=N)N)NC(=O)[C@@H](CO)NC(=O)[C@@H](CCCCN)NC(=O)[C@@H]([C@H](C)O)NC(=O)[C@H](N)CSSC[C@H](C(=O)O)NC(=O)[C@@H](CC(N)=O)NC1=O [PSP 10, H-ctksrflnc-OH] (H-[dC][dT][dK][dS][dR][dF][dL][dN][dC]-OH; disulfide 1-9)
% inhibition H9N2 (H9N2 A/Iran/16/2000; 500 μM): 50% | % inhibition H3N8 (H3N8 A/Miami/2/63; 500 μM): 82.5% | % inhibition H3N2 (H3N2 A/HK/8/1968; 500 μM): 95.5% | % inhibition H1N1 ([1]; 500 μM): 88.2%

CC[C@@H](C)[C@H]1NC(=O)[C@@H](Cc2ccccc2)NC(=O)[C@@H](CCCNC(=N)N)NC(=O)[C@@H](Cc2ccc(O)cc2)NC(=O)[C@@H](Cc2c[nH]c3ccccc23)NC(=O)[C@@H]([C@H](C)O)NC(=O)[C@H](NC(=O)[C@H](CCCCN)NC(=O)[C@H](CCCCN)NC(=O)[C@H](CCCNC(=N)N)NC(=O)[C@@H](N)CCCNC(=N)N)CSSC[C@H](C(=O)O)NC(=O)[C@@H](CC(N)=O)NC1=O [PSP III B20, H-RRKKctwyrfinc-OH] (H-RRKK[dC][dT][dW][dY][dR][dF][dI][dN][dC]-OH; disulfide 5-13)
% inhibition H9N2 (H9N2 A/Iran/16/2000; 50 μM): 86% | % inhibition H3N8 (H3N8 A/Miami/2/63; 50 μM): 96% | % inhibition H3N2 (H3N2 A/HK/8/1968; 50 μM): 100% | % inhibition H1N1 ([1]; 50 μM): 83%

CC[C@@H](C)[C@H]1NC(=O)[C@@H](Cc2ccccc2)NC(=O)[C@@H](C)NC(=O)[C@@H](Cc2ccccc2)NC(=O)[C@@H](Cc2c[nH]c3ccccc23)NC(=O)[C@@H]([C@H](C)O)NC(=O)[C@H](NC(=O)[C@H](CCCCN)NC(=O)[C@H](CCCCN)NC(=O)[C@H](CCCNC(=N)N)NC(=O)[C@@H](N)CCCNC(=N)N)CSSC[C@H](C(=O)O)NC(=O)[C@@H](CC(N)=O)NC1=O [PSP IV A1, H-RRKKctwfafinc-OH] (H-RRKK[dC][dT][dW][dF][dA][dF][dI][dN][dC]-OH; disulfide 5-13)
% inhibition H9N2 (H9N2 A/Iran/16/2000; 10 μM): 77% | % Inhibition Pdm 2009 (H1N1 A/NY/18/2009): 78% | % inhibition H3N8 (H3N8 A/Miami/2/63; 10 μM): 83% | % inhibition H1N1 ([1]; 10 μM): 78%

CC[C@@H](C)[C@H]1NC(=O)[C@@H](Cc2ccccc2)NC(=O)[C@@H](CCCNC(=N)N)NC(=O)[C@@H](CCCNC(=N)N)NC(=O)[C@@H](Cc2c[nH]c3ccccc23)NC(=O)[C@@H]([C@H](C)O)NC(=O)[C@H](NC(=O)[C@H](CCCCN)NC(=O)[C@H](CCCCN)NC(=O)[C@H](CCCNC(=N)N)NC(=O)[C@@H](N)CCCNC(=N)N)CSSC[C@H](C(=O)O)NC(=O)[C@@H](CC(N)=O)NC1=O [PSP III B15, H-RRKKctwrrfinc-OH] (H-RRKK[dC][dT][dW][dR][dR][dF][dI][dN][dC]-OH; disulfide 5-13)
% inhibition H9N2 (H9N2 A/Iran/16/2000; 50 μM): 84% | % inhibition H3N8 (H3N8 A/Miami/2/63; 50 μM): 91% | % inhibition H3N2 (H3N2 A/HK/8/1968; 50 μM): 100% | % inhibition H1N1 ([1]; 50 μM): 83%

CC[C@@H](C)[C@H]1NC(=O)[C@@H](Cc2ccccc2)NC(=O)[C@@H](CCCNC(=N)N)NC(=O)[C@@H](CO)NC(=O)[C@@H](CCCCN)NC(=O)[C@@H]([C@H](C)O)NC(=O)[C@H](N)CSSC[C@H](C(=O)O)NC(=O)[C@@H](CC(N)=O)NC1=O [PSP 8, H-ctksrfinc-OH] (H-[dC][dT][dK][dS][dR][dF][dI][dN][dC]-OH; disulfide 1-9)
% inhibition H9N2 (H9N2 A/Iran/16/2000; 500 μM): 90.9% | % inhibition H3N8 (H3N8 A/Miami/2/63; 500 μM): 83.5% | % inhibition H3N2 (H3N2 A/HK/8/1968; 500 μM): 90.9% | % inhibition H1N1 ([1]; 500 μM): 79.4%

C[C@H](O)[C@H]1NC(=O)[C@H](N)CSSC[C@H](C(=O)O)NC(=O)[C@@H](CC(N)=O)NC(=O)[C@@H](Cc2ccc(O)cc2)NC(=O)[C@@H](Cc2ccccc2)NC(=O)[C@@H](CCCNC(=N)N)NC(=O)[C@@H](CO)NC(=O)[C@@H](CCCCN)NC1=O [PSP 20, H-ctksrfync-OH] (H-[dC][dT][dK][dS][dR][dF][dY][dN][dC]-OH; disulfide 1-9)
% inhibition H9N2 (H9N2 A/Iran/16/2000; 500 μM): 63.6% | % inhibition H3N8 (H3N8 A/Miami/2/63; 500 μM): 81.4% | % inhibition H3N2 (H3N2 A/HK/8/1968; 500 μM): 95.5% | % inhibition H1N1 ([1]; 500 μM): 73.5%

CC[C@@H](C)[C@H]1NC(=O)[C@@H](Cc2ccccc2)NC(=O)[C@@H](CCCNC(=N)N)NC(=O)[C@@H](CCCCN)NC(=O)[C@@H](Cc2c[nH]c3ccccc23)NC(=O)[C@@H]([C@H](C)O)NC(=O)[C@H](NC(=O)[C@H](CCCCN)NC(=O)[C@H](CCCCN)NC(=O)[C@H](CCCNC(=N)N)NC(=O)[C@@H](N)CCCNC(=N)N)CSSC[C@H](C(=O)O)NC(=O)[C@@H](CC(N)=O)NC1=O [PSP III B9, H-RRKKctwkrfinc-OH] (H-RRKK[dC][dT][dW][dK][dR][dF][dI][dN][dC]-OH; disulfide 5-13)
% inhibition H9N2 (H9N2 A/Iran/16/2000; 50 μM): 90% | % inhibition H3N8 (H3N8 A/Miami/2/63; 50 μM): 96% | % inhibition H3N2 (H3N2 A/HK/8/1968; 50 μM): 96% | % inhibition H1N1 ([1]; 50 μM): 90%

CC(C)[C@H]1NC(=O)[C@@H](Cc2ccccc2)NC(=O)[C@@H](CCCNC(=N)N)NC(=O)[C@@H](CO)NC(=O)[C@@H](CCCCN)NC(=O)[C@@H]([C@H](C)O)NC(=O)[C@H](N)CSSC[C@H](C(=O)O)NC(=O)[C@@H](CC(N)=O)NC1=O [PSP 18, H-ctksrfvnc-OH] (H-[dC][dT][dK][dS][dR][dF][dV][dN][dC]-OH; disulfide 1-9)
% inhibition H9N2 (H9N2 A/Iran/16/2000; 500 μM): 45.5% | % inhibition H3N8 (H3N8 A/Miami/2/63; 500 μM): 78.4% | % inhibition H3N2 (H3N2 A/HK/8/1968; 500 μM): 70.4% | % inhibition H1N1 ([1]; 500 μM): 51.9%

CC[C@@H](C)[C@H]1NC(=O)[C@@H](Cc2ccccc2)NC(=O)CNC(=O)[C@@H](Cc2ccccc2)NC(=O)[C@@H](Cc2c[nH]c3ccccc23)NC(=O)[C@@H]([C@H](C)O)NC(=O)[C@H](NC(=O)[C@H](CCCCN)NC(=O)[C@H](CCCCN)NC(=O)[C@H](CCCNC(=N)N)NC(=O)[C@@H](N)CCCNC(=N)N)CSSC[C@H](C(=O)O)NC(=O)[C@@H](CC(N)=O)NC1=O [PSP IV A6, H-RRKKctwfGfinc-OH] (H-RRKK[dC][dT][dW][dF]G[dF][dI][dN][dC]-OH; disulfide 5-13)
% inhibition H9N2 (H9N2 A/Iran/16/2000; 10 μM): 35% | % Inhibition Pdm 2009 (H1N1 A/NY/18/2009): 47% | % inhibition H3N8 (H3N8 A/Miami/2/63; 10 μM): 57% | % inhibition H1N1 ([1]; 10 μM): 59%

CC[C@@H](C)[C@H]1NC(=O)[C@@H](Cc2ccccc2)NC(=O)[C@@H](CC(=O)O)NC(=O)[C@@H](Cc2ccccc2)NC(=O)[C@@H](Cc2c[nH]c3ccccc23)NC(=O)[C@@H]([C@H](C)O)NC(=O)[C@H](NC(=O)[C@H](CCCCN)NC(=O)[C@H](CCCCN)NC(=O)[C@H](CCCNC(=N)N)NC(=O)[C@@H](N)CCCNC(=N)N)CSSC[C@H](C(=O)O)NC(=O)[C@@H](CC(N)=O)NC1=O [PSP IV A3, H-RRKKctwfdfinc-OH] (H-RRKK[dC][dT][dW][dF][dD][dF][dI][dN][dC]-OH; disulfide 5-13)
% inhibition H9N2 (H9N2 A/Iran/16/2000; 10 μM): 30% | % Inhibition Pdm 2009 (H1N1 A/NY/18/2009): 72% | % inhibition H3N8 (H3N8 A/Miami/2/63; 10 μM): 59% | % inhibition H1N1 ([1]; 10 μM): 49%

CC[C@@H](C)[C@H]1NC(=O)[C@@H](Cc2ccccc2)NC(=O)[C@@H](CCCNC(=N)N)NC(=O)CNC(=O)[C@@H](Cc2c[nH]c3ccccc23)NC(=O)[C@@H]([C@H](C)O)NC(=O)[C@H](NC(=O)[C@H](CCCCN)NC(=O)[C@H](CCCCN)NC(=O)[C@H](CCCNC(=N)N)NC(=O)[C@@H](N)CCCNC(=N)N)CSSC[C@H](C(=O)O)NC(=O)[C@@H](CC(N)=O)NC1=O [PSP III B6, H-RRKKctwGrfinc-OH] (H-RRKK[dC][dT][dW]G[dR][dF][dI][dN][dC]-OH; disulfide 5-13)
% inhibition H9N2 (H9N2 A/Iran/16/2000; 50 μM): 93% | % inhibition H3N8 (H3N8 A/Miami/2/63; 50 μM): 96% | % inhibition H3N2 (H3N2 A/HK/8/1968; 50 μM): 100% | % inhibition H1N1 ([1]; 50 μM): 85%
